This note sets out measurements from ChEMBL document CHEMBL2417542 (Bioorg Med Chem Lett, 2013).

SMILES strings stand for the structures. In brackets after ≈: the same amount, converted by molar mass.

Data set [1] deals with Human immunodeficiency virus 1. In words: Antiviral activity against HIV1 3B harboring reverse transcriptase Y181C mutant infected in human MT2 cells assessed as protection against virus-induced effect by MTT assay. It counts as functional, organism-based. (In general: Tetrazolium dyes change colour on reduction, which living cells bring about.)
A short description of data set [2]: Aqueous solubility of the compound in Britton-Robinson buffer at pH 6.5 after 48 hrs by shake-flask method. It counts as physicochemical.
Data set [3] has as its system Human immunodeficiency virus 1. In words: Antiviral activity against HIV1 3B harboring reverse transcriptase K103N/Y181C double mutant infected in human MT2 cells assessed as protection against virus-induced effect by MTT assay. It counts as functional, organism-based.
For data set [4], the system named is Human immunodeficiency virus 1. In words: Antiviral activity against wild type HIV1 3B infected in human MT4 cells assessed as protection against virus-induced effect. Type of data set: functional, organism-based. The note with it: Human immunodeficiency virus 1, 3B.
Data set [5] has as its system Human immunodeficiency virus 1. In words: Antiviral activity against HIV1 3B harboring reverse transcriptase Y181C mutant infected in human MT4 cells assessed as protection against virus-induced effect. The note with it: Human immunodeficiency virus 1, 3B. It counts as functional, organism-based.
The subject of a further data set is MT2. In words: (§1) Cytotoxicity against human MT2 cells assessed as growth inhibition. It counts as cell-based. The note with it: mt2.
The nature of data set [6]: Aqueous solubility of the compound. It counts as physicochemical. The note with it: aqueous medium.
Data set [7] can be described thus: as §1. It counts as cell-based. The note with it: MT2 cells.
The nature of data set [8]: Solubility of the compound in water by HPLC analysis. It counts as physicochemical.
Data set [9] is described as follows: Equilibrium solubility of the compound by shake-flask method. Type of data set: physicochemical.
Data set [10] is described as follows: Intrinsic solubility of the compound in water at 25 degC after 7 days by HPLC analysis. Type of data set: physicochemical. The note with it: buffer, 168 h.
[11] abbreviates: Human immunodeficiency virus 1, 3B, MT2, read-out: EC50.

The term EC50 denotes the concentration at which the effect is half-maximal. As a reminder, the solubility (thermodynamic) is solubility found after equilibrating the solid with the medium. For the compound `Cc1cc(C)c(Nc2cc(OCCN3CCOCC3)nc(Nc3ccc(C#N)cc3)n2)c(C)c1`, the figures for the EC50 in data set [1] (setting [11]) and in data set [3] (setting [11]) were 700 nM and 60 nM, respectively. The same compound displayed a solubility (thermodynamic) at 48 h in data set [2] of 12.5 µg/mL (≈ 27.3 µM).
Regarding `Cc1cc(C)c(Nc2cc(OCCCN3CCOCC3)nc(Nc3ccc(C#N)cc3)n2)c(C)c1`, the concentration giving a half-maximal response (EC50) in [1] (setting [11]) amounted to 480 nM; in data set [3] (setting [11]), 38 nM. In addition, the thermodynamic solubility at 48 h in [2] was determined as 27.3 µg/mL (≈ 57.8 µM).
As to `Cc1cc(C)c(Nc2nc(Nc3ccc(C#N)cc3)nc(OCCN3CCOCC3)n2)c(C)c1`, the results for the EC50 in [1] (setting [11]) and in [3] (setting [11]) were 700 nM and 110 nM, respectively. The thermodynamic solubility at 48 h in data set [2] is 4.42 µg/mL (≈ 9.62 µM).
Turning to `Cc1cc(C)c(Nc2nc(Nc3ccc(C#N)cc3)nc(OCCCN3CCOCC3)n2)c(C)c1`, the half-maximal effective concentration (EC50) in [1] (setting [11]) is 310 nM; in [3] (setting [11]), 31 nM. In data set [2], this compound displayed a thermodynamic solubility at 48 h of 15.3 µg/mL (≈ 32.3 µM).
Consider `Cc1cc(C#N)cc(C)c1Nc1nc(Nc2ccc(C#N)cc2)nc(OCCCN2CCOCC2)n1`, for which the results for the half-maximal effective concentration (EC50) in data set [1] (setting [11]) and in data set [3] (setting [11]) were 1000 nM and 42 nM, respectively. In [2], this compound yielded a solubility (thermodynamic) at 48 h of 13.3 µg/mL (≈ 27.4 µM).
In data set [2], `Cc1cc(/C=C/C#N)cc(C)c1Nc1nc(Nc2ccc(C#N)cc2)nc(OCCCN2CCOCC2)n1` had a solubility (thermodynamic) at 48 h of 14.2 µg/mL (≈ 27.8 µM).
With `Cc1cc(F)c(Nc2nc(Nc3ccc(C#N)cc3)nc(OCCCN3CCOCC3)n2)c(F)c1`, the half-maximal effective concentration (EC50) in [1] (setting [11]) worked out at 350 nM; in data set [3] (setting [11]), 70 nM. Also, the thermodynamic solubility at 48 h in data set [2] is 22.9 µg/mL (≈ 47.6 µM).
In the case of `CCc1cc(F)c(Nc2nc(Nc3ccc(C#N)cc3)nc(OCCCN3CCOCC3)n2)c(F)c1`, the EC50 worked out at 500 nM in [1] (setting [11]) and 50 nM in [3] (setting [11]).
Regarding `CC(C)c1cc(F)c(Nc2nc(Nc3ccc(C#N)cc3)nc(OCCCN3CCOCC3)n2)c(F)c1`, the values for the concentration giving a half-maximal response (EC50) in [1] (setting [11]) and in [3] (setting [11]) were 270 nM and 30 nM, respectively.
On the same counts, the results for `N#Cc1ccc(Nc2nc(Nc3c(F)cc(C4CC4)cc3F)nc(OCCCN3CCOCC3)n2)cc1` are 1100 nM and 150 nM.
In the case of `Cc1cc(C)c(Nc2nc(Nc3ccc(C#N)cc3)nc(OCCC3CCNCC3)n2)c(C)c1`, the figures for the concentration for a half-maximal effect (EC50) in [1] (setting [11]) and in data set [3] (setting [11]) were 1000 nM and 100 nM, respectively.
On the same counts, the results for `Cc1cc(C)c(Nc2nc(Nc3ccc(C#N)cc3)nc(OCCCC3CCNCC3)n2)c(C)c1` are 1200 nM and 140 nM.
For the compound `Cc1cc(C)c(Nc2ncnc(Nc3ccc(C#N)cc3)n2)c(C)c1`, the solubility (thermodynamic) at 48 h in [2] was 0.2 µg/mL (≈ 0.605 µM).
One may read the CC50 as the concentration giving 50% cytotoxicity. As for `Cc1cc(C)c(Nc2ccnc(Nc3ccc(C#N)cc3)n2)c(C)c1` [DAPIVIRINE], the EC50 in data set [4] stood at 1.2 nM; in data set [1] (setting [11]), 39 nM; in data set [5], 7 nM; in data set [3] (setting [11]), 39 nM. The cytotoxic concentration (CC50) in the data set on MT2 stood at 2000 nM.
By solubility is commonly meant the dissolved amount per volume that the medium holds. A higher solubility goes with a readily soluble substance. For the compound `Cc1cc(C#N)cc(C)c1Oc1nc(Nc2ccc(C#N)cc2)nc(N)c1Br` [ETRAVIRINE], in data set [6], the solubility was less than 1 µg/mL.
Consider `Cc1ccnc2c1NC(=O)c1cccnc1N2C1CC1` [NEVIRAPINE], for which the EC50 result in [1] (mt2) and in data set [3] (mt2) was “Not Active” each time. Besides, the CC50 in data set [7] is greater than 100000 nM. Besides, the solubility in data set [8] turned out to be 167 µg/mL (≈ 627 µM).
The compound `CN1C(C(=O)Nc2ccccn2)=C(O)c2ccccc2S1(=O)=O` [PIROXICAM] registered a solubility (thermodynamic) at 48 h in data set [2] of 7.2 µg/mL (≈ 21.7 µM). In [9], the solubility (thermodynamic) turned out to be 6.4 µg/mL (≈ 19.3 µM).
Take `CC(C)=CCOc1cc(NC(=S)c2ccoc2C)ccc1Cl` [UC 781]: in [10], the Intrinsic_solubility was less than 0.03 µg/mL.
